Several values for one entry are separate records, joined by “and”; a condition that tells them apart may be missing. Equal entries are not always repeated.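 Assay format: 96-well plates, 48-hour exposure. GI50: concentration for 50% inhibition of growth. TGI is the concentration that stops growth completely.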
Each molecule was assayed on BT-549 breast (assay: NCI tumour cell line growth inhibition, 48 h).

Structure (SMILES) | TGI
CC(=O)Nc1ccc(C(=O)NN2C(=O)C(Cl)C2c2ccc(Cl)cc2)cc1 (stereo unspecified) | > 100 µM
CCOC(=O)Nc1nc2ccc(Cn3cccc3)cc2[nH]1 | > 100 µM

The molecules below were run on SF-268 CNS (assay: NCI tumour cell line growth inhibition, 48 h).

Structure (SMILES) | TGI
COC(=O)C1C(C(=O)OC)C2(OC)c3ccccc3-c3ccccc3C12 (stereo unspecified) | > 100 µM
CCN(CC)CC(O)CNc1ccc(NCC2CO2)c2c1C(=O)c1ccccc1C2=O (stereo unspecified) | 0.683 µM
CC(=O)c1cccc(N2COC(C)(C)c3nc4ccccc4n3C2)c1 | > 100 µM
Cc1c[nH]c2c(O)cc3c(c12)[C@H](CCl)CN3C(=O)c1cc2cc(NC(=O)Nc3ccc4[nH]c(C(=O)N5C[C@@H](CCl)c6c5cc(O)c5[nH]cc(C)c65)cc4c3)ccc2[nH]1 | 58.9 nM and 82.3 µM and 0.00887 µg/mL
CCOC(=O)NC(=O)c1cn(CC(=O)NCC(=O)NCC(=O)NCCCN2CCN(CCCNC(=O)CNC(=O)CNC(=O)Cn3cc(C(=O)NC(=O)OCC)c(=O)[nH]c3=O)CC2)c(=O)[nH]c1=O | > 100 µM
CC[C@@H]1OC2(C)CC(S(=O)(=O)c3ccccc3O)CC1O2 (stereo partly specified) | > 100 µM
CC(=O)OCC1OC(N2C(=O)C(=O)c3cc(C)ccc32)C(OC(C)=O)C(OC(C)=O)C1OC(C)=O (stereo unspecified) | > 100 µM
CC(=O)Nc1ccc(C(=O)NN2C(=O)C(Cl)C2c2ccc(Cl)cc2)cc1 (stereo unspecified) | > 86.3 µM
CCCCc1c2c(nc3c1CCC/C3=C\c1ccccc1)C(=O)CCC2 | 44.3 µM
C=CC1(C(=O)O)CCC(C(C)(C)C)CC1 (stereo unspecified) | > 100 µM
O=C(Nc1cc(Cl)c(Cl)cc1Cl)C(=O)C1C=CCS1(=O)=O (stereo unspecified) | > 100 µM
CCNC(=O)CCN(C(=O)O)S(=O)(=O)c1ccc(NC(=O)c2ccccc2)cc1 | > 100 µM
O=C(/C=C/c1ccc([N+](=O)[O-])o1)N1CCN(Cc2ccccc2)CC1 | 29.5 µM
O=[N+]([O-])c1cccc(/C=N\NS(=O)(=O)c2ccc(Cl)cc2)c1O | > 100 µM
CC1=C(C(=O)Nc2ccccc2C)C(c2ccc(Cl)c(Cl)c2)C(C(=O)Nc2ccccc2C)=C(C)N1 | 47.3 µM
CCCCOC(=O)NC(=O)c1cn(CCCOC(=O)CCCCCCCCC(=O)OCCCn2cc(C(=O)NC(=O)OCCCC)c(=O)[nH]c2=O)c(=O)[nH]c1=O | > 100 µM
CCOC(=O)Nc1nc2ccc(Cn3cccc3)cc2[nH]1 | > 100 µM

The molecules below were run on SK-MEL-5 melanoma (assay: NCI tumour cell line growth inhibition, 48 h).

Structure (SMILES) | TGI | GI50
COC(=O)C1C(C(=O)OC)C2(OC)c3ccccc3-c3ccccc3C12 (stereo unspecified) | 78.7 µM | 
CCN(CC)CC(O)CNc1ccc(NCC2CO2)c2c1C(=O)c1ccccc1C2=O (stereo unspecified) | 1.8 µM | 0.398 µM
Cc1c[nH]c2c(O)cc3c(c12)[C@H](CCl)CN3C(=O)c1cc2cc(NC(=O)Nc3ccc4[nH]c(C(=O)N5C[C@@H](CCl)c6c5cc(O)c5[nH]cc(C)c65)cc4c3)ccc2[nH]1 | 26.6 nM and 25.5 µM and 0.00138 µg/mL | 
CCOC(=O)NC(=O)c1cn(CC(=O)NCC(=O)NCC(=O)NCCCN2CCN(CCCNC(=O)CNC(=O)CNC(=O)Cn3cc(C(=O)NC(=O)OCC)c(=O)[nH]c3=O)CC2)c(=O)[nH]c1=O | > 100 µM | 
CC[C@@H]1OC2(C)CC(S(=O)(=O)c3ccccc3O)CC1O2 (stereo partly specified) | > 100 µM | 
CC(=O)OCC1OC(N2C(=O)C(=O)c3cc(C)ccc32)C(OC(C)=O)C(OC(C)=O)C1OC(C)=O (stereo unspecified) | > 100 µM | 
CC(=O)Nc1ccc(C(=O)NN2C(=O)C(Cl)C2c2ccc(Cl)cc2)cc1 (stereo unspecified) | > 100 µM | 
CCCCc1c2c(nc3c1CCC/C3=C\c1ccccc1)C(=O)CCC2 | 30.4 µM | 
C=CC1(C(=O)O)CCC(C(C)(C)C)CC1 (stereo unspecified) | > 100 µM | 
O=C(Nc1cc(Cl)c(Cl)cc1Cl)C(=O)C1C=CCS1(=O)=O (stereo unspecified) | > 100 µM | 
CCNC(=O)CCN(C(=O)O)S(=O)(=O)c1ccc(NC(=O)c2ccccc2)cc1 | > 100 µM | 
O=C(/C=C/c1ccc([N+](=O)[O-])o1)N1CCN(Cc2ccccc2)CC1 | 22.4 µM | 
O=[N+]([O-])c1cccc(/C=N\NS(=O)(=O)c2ccc(Cl)cc2)c1O | > 100 µM | 
CC1=C(C(=O)Nc2ccccc2C)C(c2ccc(Cl)c(Cl)c2)C(C(=O)Nc2ccccc2C)=C(C)N1 | 31.8 µM | 
CCCCOC(=O)NC(=O)c1cn(CCCOC(=O)CCCCCCCCC(=O)OCCCn2cc(C(=O)NC(=O)OCCCC)c(=O)[nH]c2=O)c(=O)[nH]c1=O | > 100 µM | 
CCOC(=O)Nc1nc2ccc(Cn3cccc3)cc2[nH]1 | > 38.6 µM | 

These molecules were tested on SR leukemia (assay: NCI tumour cell line growth inhibition, 48 h).

Structure (SMILES) | TGI | GI50
COC(=O)C1C(C(=O)OC)C2(OC)c3ccccc3-c3ccccc3C12 (stereo unspecified) | 42 µM | 
CCN(CC)CC(O)CNc1ccc(NCC2CO2)c2c1C(=O)c1ccccc1C2=O (stereo unspecified) |  | 0.0346 µM
CC(=O)c1cccc(N2COC(C)(C)c3nc4ccccc4n3C2)c1 | > 100 µM | 
Cc1c[nH]c2c(O)cc3c(c12)[C@H](CCl)CN3C(=O)c1cc2cc(NC(=O)Nc3ccc4[nH]c(C(=O)N5C[C@@H](CCl)c6c5cc(O)c5[nH]cc(C)c65)cc4c3)ccc2[nH]1 |  | 0.000244 µM
CCOC(=O)NC(=O)c1cn(CC(=O)NCC(=O)NCC(=O)NCCCN2CCN(CCCNC(=O)CNC(=O)CNC(=O)Cn3cc(C(=O)NC(=O)OCC)c(=O)[nH]c3=O)CC2)c(=O)[nH]c1=O | > 100 µM | 
CC[C@@H]1OC2(C)CC(S(=O)(=O)c3ccccc3O)CC1O2 (stereo partly specified) | > 100 µM | 
CC(=O)OCC1OC(N2C(=O)C(=O)c3cc(C)ccc32)C(OC(C)=O)C(OC(C)=O)C1OC(C)=O (stereo unspecified) | 41.4 µM | 
CC(=O)Nc1ccc(C(=O)NN2C(=O)C(Cl)C2c2ccc(Cl)cc2)cc1 (stereo unspecified) | > 100 µM | 
CCCCc1c2c(nc3c1CCC/C3=C\c1ccccc1)C(=O)CCC2 | 36.6 µM | 
C=CC1(C(=O)O)CCC(C(C)(C)C)CC1 (stereo unspecified) | > 100 µM | 
O=C(Nc1cc(Cl)c(Cl)cc1Cl)C(=O)C1C=CCS1(=O)=O (stereo unspecified) | > 100 µM | 
CCNC(=O)CCN(C(=O)O)S(=O)(=O)c1ccc(NC(=O)c2ccccc2)cc1 | > 100 µM | 
O=C(/C=C/c1ccc([N+](=O)[O-])o1)N1CCN(Cc2ccccc2)CC1 | 38.7 µM | 
O=[N+]([O-])c1cccc(/C=N\NS(=O)(=O)c2ccc(Cl)cc2)c1O | 60.5 µM | 
CC1=C(C(=O)Nc2ccccc2C)C(c2ccc(Cl)c(Cl)c2)C(C(=O)Nc2ccccc2C)=C(C)N1 | 36.8 µM | 
CCCCOC(=O)NC(=O)c1cn(CCCOC(=O)CCCCCCCCC(=O)OCCCn2cc(C(=O)NC(=O)OCCCC)c(=O)[nH]c2=O)c(=O)[nH]c1=O | > 100 µM | 
CCOC(=O)Nc1nc2ccc(Cn3cccc3)cc2[nH]1 | > 36.2 µM | 

The molecules below were run on ACHN renal (assay: NCI tumour cell line growth inhibition, 48 h).

Structure (SMILES) | TGI | GI50
COC(=O)C1C(C(=O)OC)C2(OC)c3ccccc3-c3ccccc3C12 (stereo unspecified) | > 100 µM | 
CCN(CC)CC(O)CNc1ccc(NCC2CO2)c2c1C(=O)c1ccccc1C2=O (stereo unspecified) | 0.448 µM and 0.751 µM | 51.4 nM
CC(=O)c1cccc(N2COC(C)(C)c3nc4ccccc4n3C2)c1 | > 100 µM | 
Cc1c[nH]c2c(O)cc3c(c12)[C@H](CCl)CN3C(=O)c1cc2cc(NC(=O)Nc3ccc4[nH]c(C(=O)N5C[C@@H](CCl)c6c5cc(O)c5[nH]cc(C)c65)cc4c3)ccc2[nH]1 |  | 0.0841 nM
CCOC(=O)NC(=O)c1cn(CC(=O)NCC(=O)NCC(=O)NCCCN2CCN(CCCNC(=O)CNC(=O)CNC(=O)Cn3cc(C(=O)NC(=O)OCC)c(=O)[nH]c3=O)CC2)c(=O)[nH]c1=O | > 100 µM | 
CC[C@@H]1OC2(C)CC(S(=O)(=O)c3ccccc3O)CC1O2 (stereo partly specified) | > 100 µM | 
CC(=O)OCC1OC(N2C(=O)C(=O)c3cc(C)ccc32)C(OC(C)=O)C(OC(C)=O)C1OC(C)=O (stereo unspecified) | > 100 µM | 
CC(=O)Nc1ccc(C(=O)NN2C(=O)C(Cl)C2c2ccc(Cl)cc2)cc1 (stereo unspecified) | > 100 µM | 
CCCCc1c2c(nc3c1CCC/C3=C\c1ccccc1)C(=O)CCC2 | 95.2 µM | 
C=CC1(C(=O)O)CCC(C(C)(C)C)CC1 (stereo unspecified) | > 100 µM | 
O=C(Nc1cc(Cl)c(Cl)cc1Cl)C(=O)C1C=CCS1(=O)=O (stereo unspecified) | > 100 µM | 
CCNC(=O)CCN(C(=O)O)S(=O)(=O)c1ccc(NC(=O)c2ccccc2)cc1 | > 100 µM | 
O=C(/C=C/c1ccc([N+](=O)[O-])o1)N1CCN(Cc2ccccc2)CC1 | 28.3 µM | 
O=[N+]([O-])c1cccc(/C=N\NS(=O)(=O)c2ccc(Cl)cc2)c1O | > 100 µM | 
CC1=C(C(=O)Nc2ccccc2C)C(c2ccc(Cl)c(Cl)c2)C(C(=O)Nc2ccccc2C)=C(C)N1 | > 100 µM | 
CCCCOC(=O)NC(=O)c1cn(CCCOC(=O)CCCCCCCCC(=O)OCCCn2cc(C(=O)NC(=O)OCCCC)c(=O)[nH]c2=O)c(=O)[nH]c1=O | > 100 µM | 
CCOC(=O)Nc1nc2ccc(Cn3cccc3)cc2[nH]1 | > 100 µM | 

— PubChem BioAssay (NCI)
